Reference: patent publication US20250101046A1 (TAE Life Sciences LLC, priority 2023, published 2025)

How the values were obtained:
[1] = Solubility in water / need of fructose to aid solubility; assay type: physicochemical
intracranial tumor = conditions: BNCT, beam directed to surgically exposed intracranial tumor; cited from earlier work

| Compound | requirement of fructose to aid solubility [1] | solubility in water ([1]; water) | threshold of solubility compared to BPA ([1]; with fructose, versus BPA) | 5-year survival rate (intracranial tumor) |
| --- | --- | --- | --- | --- |
| COc1ccc(C[C@H](N)C(=O)O)cc1[10B](O)O [TC221, (S)-2-(amino)-3-(4-methoxy-3-boronic acid)propionic acid] | does require fructose | very soluble | much higher compared to BPA | – |
| undecahydro-closo-dodecaboratethiol [BSH] | – | – | – | 58% |
